Test system: S. aureus bacteria
Assay: survival of S. aureus bacteria on agar culture plates following 3 sec. exposure to atomized liquid
Assay type: cell-based
Settings: for antimicrobial effectiveness of the liquid as solvent of the nitric oxide solution: liquid atomized with NO, rank: ethanol>isopropanol>water
Experimental: The survival fraction is the fraction of at least 100 colonies that survive the treatment. Control plates were exposed to air for 3 sec. Ethanol plates were exposed to ethanol atomized with nitrogen. 25% NO plates were exposed to ethanol atomized with 25% NO and 75% nitrogen.
Experiments were conducted on agar culture plates to compare nitric oxide concentrations ranging from 0% in nitrogen (the ‘ethanol’ experiment) to 100% NO.

| SMILES | effect of NO on the antimicrobial activity of the atomized liquid (NO concentrations 0% to 100% in nitrogen compared) | antimicrobial effectiveness of the liquid as solvent of the nitric oxide solution |
| --- | --- | --- |
| [N]=O [NO, nitric oxide] | dramatically increases the antimicrobial activity |  |
| CCO [ethanol] |  | effective |
| CC(C)O [isopropanol] |  | effective |
| O [water] |  | effective |
